Literature values in patent US6569857B1, “Dietary supplement” (Drugtech Corporation, priority 1999, dated 2003).

Assays:
[1] = test system: malondialdehyde concentrations; settings: oral vitamin E, male infertility patients; high levels are indicia of decreased sperm motility
[2] = test system: spermatozoal zona binding; settings: oral dosing over a three month period, male infertility

- increase in spermatozoal zona binding [2]: 50%
Substance: vitamin E
- malondialdehyde concentrations [1]: significantly decreased
